One series deals with human cathepsin L (Homo sapiens, UniProt P07711). Put plainly: Cathepsin L Ki determination (fluorescent substrate H-D-Val-Leu-Lys-AMC). Format: biochemical. To be noted: pH5.5. The method, then:
The procedure above with the following amendments is used for the determination of Ki for cathepsin L.
The enzyme is commercially available human cathepsin L (for example Calbiochem). The substrate is H-D-Val-Leu-Lys-AMC available from Bachem. The assay buffer is 100 mM sodium acetate 1 mM EDTA, pH5.5) The DMSO stock (10 mM in 100%DMSO) is diluted to 10% in assay buffer. Enzyme is prepared at 5 nM concentration in assay buffer plus 1 mM dithiothreitol just before use. 2 ul of 10 mM inhibitor made up in 100% DMSO is dispensed into row A. 10 ul of 50 uM substrate (=1/200 dilution of 10 mM stock in DMSO, diluted in assay buffer)
Potential inhibitors are screened using the above assay with variable concentrations of test compound. Reactions were initiated by addition of enzyme to buffered solutions of substrate and inhibitor. Ki values were calculated according to equation 1 v0 = (VS)/(KM (1 + (I)/(Ki)) + S) [formula] where v0 is the velocity of the reaction, V is the maximal velocity, S is the concentration of substrate with Michaelis constant of KM, and / is the concentration of inhibitor.
Representative compounds of the invention were assayed for cathepsin K potency and selectivity in the assays above. Note that the cathepsin L and S data is in micromolar, whereas the compounds are so potent against cathepsin K that the results are presented in nanomolar.

The target of the next series is T1, human cathepsin S (Homo sapiens, UniProt P25774).
T1 construct: made in house
T1 sequence (P25774 115-331): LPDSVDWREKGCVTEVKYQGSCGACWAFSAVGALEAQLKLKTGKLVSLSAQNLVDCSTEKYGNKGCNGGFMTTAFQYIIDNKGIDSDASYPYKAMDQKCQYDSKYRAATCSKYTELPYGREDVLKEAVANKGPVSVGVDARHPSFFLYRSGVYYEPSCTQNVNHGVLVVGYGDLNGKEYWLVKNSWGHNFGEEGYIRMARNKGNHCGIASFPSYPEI
Put plainly: Cathepsin S Ki determination (fluorescent substrate boc-Val-Leu-Lys-AMC). The settings on record: baculovirus-expressed human cathepsin S, pH 6.5. In kind it is biochemical. The method, then:
The assay uses baculovirus-expressed human cathepsin S and the boc-Val-Leu-Lys-AMC fluorescent substrate available from Bachem in a 384 well plate format, in which 7 test compounds can be tested in parallel with a positive control comprising a known cathepsin S inhibitor comparator.
280 ul/well of 12.5% DMSO are added to rows B - H of two columns of a 96 deep well polypropylene plate. 70 ul/well of substrate is added to row A. 2 x 250 ul/well of assay buffer (100 mM Na phosphate, 100 mM NaCl, pH 6.5) is added to row A, mixed, and double diluted down the plate to row H.
100 ul/well of assay buffer is added to columns 2-5 and 7-12 of 4 rows of a 96 well V bottom polypropylene plate. 200 ul/well of assay buffer is added to columns 1 and 6.
2 ul of each 10 mM test compound is added to a separate well on row A, columns 1-10. Add 90 ul assay buffer containing 1 mM DTT and 2 nM cathepsin S to each well of rows B-H and 180 ul to row A. Mix row A using a multichannel pipette and double dilute to row G. Mix row H and read in the fluorescent spectrophotometer.
The second test compound is added to column 6 of the top row, the third to column 1 of the second row etc. Add 1 ul of comparator to column 6 of the bottom row. […]
Using the a distributor such as a Multidrop 384, add 30 ul/well to all wells of the assay plate and read in fluorescent spectrophotometer such as an Ascent. […]

Series [1] in a line: Permeability, transport through Caco-2 cell monolayers. The settings on record: human. On the technique in general: Caco-2 monolayers are a common model of the intestinal barrier.
The target in a further series is T2, cathepsin K (Homo sapiens, UniProt P43235).
T2 construct: made in house; host or cells: not fixed: E coli, Pichia or Baculovirus systems named as options
T2 sequence (P43235 115-329): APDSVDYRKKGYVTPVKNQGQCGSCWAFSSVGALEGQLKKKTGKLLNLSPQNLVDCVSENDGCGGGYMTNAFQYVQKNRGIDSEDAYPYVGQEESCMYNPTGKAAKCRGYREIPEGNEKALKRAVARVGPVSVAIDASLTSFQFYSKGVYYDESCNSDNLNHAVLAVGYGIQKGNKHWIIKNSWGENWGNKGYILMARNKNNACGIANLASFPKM
In words: Determination of cathepsin K proteolytic catalytic activity (Ki, fluorogenic peptide substrate). In kind it is biochemical. The settings on record: human recombinant enzyme. On the procedure:
Convenient assays for cathepsin K are carried out using human recombinant enzyme, such as that described in PDB.
The recombinant cathepsin K can be expressed in a variety of commercially available expression systems including E coli, Pichia and Baculovirus systems. The purified enzyme is activated by removal of the prosequence by conventional methods.
The enzyme concentration used was 5 nM. The stock substrate solution was prepared at 10 mM in DMSO. […] The total DMSO concentration in the assay was kept below 3%. All assays were conducted at ambient temperature. Product fluorescence (excitation at 390 nm, emission at 460 nm) was monitored with a Labsystems Fluoroskan Ascent fluorescent plate reader.
Potential inhibitors are screened using the above assay with variable concentrations of test compound. Reactions were initiated by addition of enzyme to buffered solutions of substrate and inhibitor.

For series [2] the following is noted: reference compounds (markers) of the permeability assay; cited from earlier work.

Broadly, the Ki is the dissociation constant of the complex between target and ligand, obtained from inhibition or displacement. The Papp is a coefficient for how fast a substance crosses the barrier. Higher therefore signals ready permeation.

Chain of human cathepsin L (P07711 114-333): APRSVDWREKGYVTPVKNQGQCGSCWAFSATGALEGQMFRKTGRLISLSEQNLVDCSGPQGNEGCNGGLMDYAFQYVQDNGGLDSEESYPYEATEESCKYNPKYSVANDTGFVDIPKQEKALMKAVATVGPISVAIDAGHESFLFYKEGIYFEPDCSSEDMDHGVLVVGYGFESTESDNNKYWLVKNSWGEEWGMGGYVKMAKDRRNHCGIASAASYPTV

Regarding `CCC1OCC(=O)C1NC(=O)C1(NC(=O)c2ccc(-c3csc(N4CCN(C)CC4)n3)cc2)CCCCC1` (stereo not shown) [Example 2, N-[1-(2-Ethyl-4-oxo-tetrahydro-furan-3-ylcarbamoyl)-cyclohexyl]-4-[2-(4-methylpiperazin-1-yl)-thiazol-4-yl]-benzamide], the Ki on human cathepsin L amounted to 120 µM; on human cathepsin S, 770 µM. This compound displayed a Papp at 120 min, 10 uM in series [1] of 36 ×10⁻⁶ cm/s.

`CCC1OCC(=O)C1NC(=O)C(CC(C)C)NC(=O)c1ccc(-c2csc(N3CCN(C)CC3)n2)cc1` (stereo not shown) [Example 3, N-[1-(2-Ethyl-4-oxo-tetrahydro-furan-3-ylcarbamoyl)-3-methyl-butyl]-4-[2-(4-methylpiperazin-1-yl)-thiazol-4-yl]-benzamide]: the Ki at cathepsin K is 1 nM; on human cathepsin L it was 0.5 µM; at human cathepsin S, 1.8 µM. The same compound returned a Papp at 120 min, 10 uM in series [1] of 46 ×10⁻⁶ cm/s.

On to `OC[C@@H](O)[C@@H](O)[C@H](O)[C@H](O)CO` [Mannitol], for which the “% absorption in man” value in series [2] is recorded as 16%.

Take `CN(Cc1cnc2nc(N)nc(N)c2n1)c1ccc(C(=O)N[C@@H](CCC(=O)O)C(=O)O)cc1` [Methotrexate]: the “% absorption in man” value in series [2] is recorded as 20%.

`CC(C)C[C@H](NC(=O)c1ccc(N2CCN(C)CC2)cc1)C(=O)N[C@H]1C(=O)CO[C@@H]1C` [Prior art, reference compound] yielded an apparent permeability (Papp) at 10 µM in series [1] of 1 ×10⁻⁶ cm/s.

The values above are taken from EP1916248A1, “Furanone derivatives as cysteine protease inhibitors” (MEDIVIR AB, priority 2006, dated 2008).
